Test results taken from paper PMC10526274, “Epithelial-Immune Cell Crosstalk Determines the Activation of Immune Cells In Vitro by the Human Cathelicidin LL-37 at Low Physiological Concentrations” (Biomolecules, 2023).
Values joined by “and” are separate entries in the source; they are usually repeats but may differ in a detail not shown here. Equal values may be shown once.

Tested on: primary blood monocytes
Assay: Multiplex xMAP cytokine levels, primary blood monocytes alone stimulated with LL-37
Assay type: cell-based, human
Conditions: 1 µM LL-37, 24 h
Description: Peripheral blood mononuclear cells (PBMCs) from a healthy donor were purchased from the American Type Culture Collection (ATCC PCS-800-011). Blood monocytes were isolated from PBMCs by plastic adhesion. Mature monocyte-derived dendritic cells (moDCs) were generated in vitro from peripheral blood monocytes, according to Nair et al.. Briefly, monocytes were cultured in a humidified CO2-incubator (5% CO2, 37 °C) in the complete RPMI-1640 medium (Gibco) with 10% FBS, antibiotics, and supplemented with a cytokine cocktail containing 500 U/mL rhIL-4 and 800 U/mL rhGM-CSF (both Sci-Store, Moscow, Russia). On the third day, the medium was replaced by the same fresh medium with FBS, antibiotics, and the cytokine cocktail. Induction of maturation of the immature monocyte-derived dendritic cells was performed on the 5th day by replacing the medium with the complete RPMI-1640 medium (Gibco) with 10% FBS and antibiotics, supplemented with a cytokine cocktail containing 500 U/mL rhIL-4, 800 U/mL rhGM-CSF (both Sci-Store, Moscow, Russia), and 100 U/mL rhTNF-α (Sigma-Aldrich), and subjected to subsequent incubation of the culture for 4 more days.
Primary blood monocytes, moDCs, and NKT cells were seeded in 600 µL of complete RPMI-1640 with 10% Human AB serum (Capricorn Scientific, Ebsdorfergrund, Germany) and supplemented with 1X antibiotic–antimycotic solution into the wells of 24-well plates at a density of 3–7 × 10^5 cells/well 24 h before the experiment. Then, 24 h later, the medium in each well was replaced by the same medium with 1 µM of LL-37 for the sample wells or fresh medium alone for the control wells, and the permeable inserts with the Caco-2 monolayer with TEER > 400 Ω × cm^2, containing 400 μL of the complete medium in their apical chamber, were immediately placed into the appropriate wells. Also, inserts with the Caco-2 monolayer were placed in cell-free wells of 24-well plates in the same complete RPMI-1640 medium with or without 1 µM of LL-37 as controls. Cells were kept in a CO2-incubator (5% CO2, 37 °C) for another 24 h. Then, culture medium from each well was collected, centrifuged, and frozen at −70 °C.
To quantitatively evaluate a broad spectrum of analytes secreted by human cell cultures at the protein level, multiplex xMAP technology was used. The chosen panel (cat. #HCYTA-60K-PX48, Merck, Darmstadt, Germany) included 48 different magnetic beads with primary antibodies to the following cytokines, chemokines, and growth factors: CCL11 (Eotaxin-1), Flt-3 ligand, CX3CL1 (Fractalkine), sCD40L, FGF-2, EGF, GROα, GM-CSF, G-CSF, IL-1RA, IL-1α, IL-1β, IL-2, IL-3, IL-4, IL-5, IL-6, IL-7, CXCL8 (IL-8), IL-9, IL-10, IL-12p40, IL-12p70, IL-13, IL-15, IL-17A (CTLA8), IL-17E (IL-25), IL-17F, IL-18, IL-22, IL-27, IFNγ, IFNα2, CXCL10 (IP-10), CCL2 (MCP-1), CCL7 (MCP-3), CCL22 (MDC), CXCL9 (MIG), CCL3 (MIP-1α), CCL4 (MIP-1β), CCL5 (RANTES), M-CSF, PDGF-AA, PDGF-AB/BB, TNFα, TNFβ, TGFα, and VEGF-A. The assay was performed in accordance with the manufacturer’s instructions with overnight incubation of the samples with primary antibodies, and the plate was read on a MAGPIX System (Merck) using the xPONENT 4.2 software (Merck). The acquired fluorescence data were analyzed by the MILLIPLEX Analyst v5.1 software (Merck), which realized an advanced curve-fitting algorithm. Levels of the analytes in control and experimental samples were compared with an unpaired two-sample t-test using GraphPad Prism v.8.0.1 (GraphPad Software, Inc., San Diego, CA, USA). The p-values ≤ 0.05 were considered significant.

LL-37: the only human cathelicidin, host defense antimicrobial peptide of 37 a.a. residues, produced by solid-phase peptide synthesis
RANTES level (n=2, control 1.06): 181.22 pg/mL | FLT-3L level (n=2, control 1.18): 0.93 pg/mL | IL-2 level (n=2, control 1.49): 0.99 pg/mL | IL-18 level (n=2, control 1.74): 1.22 pg/mL | IFNg level (n=2, control 1.82): 1.8 pg/mL | IL-4 level (n=2, control 1.92): 1.63 pg/mL | IL-17A level (n=2, control 2.18): 3.05 pg/mL | IL-15 level (n=2, control 2.88): 1.82 pg/mL | GM-CSF level (n=2, control 3.83): 4.97 pg/mL | TGF-a level (n=2, control 4.84): 3.88 pg/mL | IL-9 level (n=2, control 6.65): 6.65 pg/mL | TNFb level (n=2, control 10.12): 11.76 pg/mL | IFNa2 level (n=2, control 15.98): 11.65 pg/mL | EGF level (n=2, control 18.24): 17.26 pg/mL | IL-1a level (n=2, control 18.92): 25.51 pg/mL | IL-10 level (n=2, control 22.54, p = 0.23): 23.6 pg/mL and 23.64 pg/mL | IL-13 level (n=2, control 25.51): 23.32 pg/mL | IL-1b level (n=2, control 25.75, p = 0.094): 32 pg/mL and 32.49 pg/mL | IL-22 level (n=2, control 27.2): 27.2 pg/mL | Fractalkine level (n=2, control 28.72): 25.92 pg/mL | M-GSF level (n=2, control 32.5): 62.71 pg/mL | IL-12 (p40) level (n=2, control 32.89): 37.68 pg/mL | VEGFa level (n=2, control 35.58): 36.32 pg/mL | MIP-1a level (n=2, control 45.5, p = 0.0001): 109 pg/mL and 109.63 pg/mL | FGF-2 level (n=2, control 52.5): 47.27 pg/mL | PDGF-AA level (n=2, control 62.71): 47.99 pg/mL | IL-27 level (n=2, control 63.66): 67.29 pg/mL | MIP-1b level (n=2, control 78.19, p = 0.0004): 2750 pg/mL | IL-1RA level (n=2, control 86.47): 65.97 pg/mL | sCD40L level (n=2, control 108.76): 102.18 pg/mL | TNFa level (n=2, control 110.45, p = 0.15): 123 pg/mL and 123.49 pg/mL | G-CSF level (n=2, control 121.45, p = 0.002): 220 pg/mL and 220.28 pg/mL | MIG level (n=2, control 606.02, p = 0.003): 342 pg/mL and 342.19 pg/mL | PDGF-AB/BB level (n=2, control 1327): 1070 pg/mL | IP-10 level (n=2, control 1716): 11.29 pg/mL | MDC level (n=2, control 3407): 3208 pg/mL | IL-6 level (n=2, control 4145): 4861 pg/mL | MCP-3 level (n=2, control 4963): 3343 pg/mL | GROa level (n=2, control 5512): 5987 pg/mL | MCP-1 level (n=2, control 8325): 7953 pg/mL | IL-7 level (n=2, control <0.30): <0.30↓ pg/ml | IL-5 level (n=2, control <0.35): <0.35↓ pg/ml | IL-3 level (n=2, control <0.55): <0.55↓ pg/ml | IL-12 (p70) level (n=2, control <1.71): <1.71↓ pg/ml | Eotaxin level (n=2, control <2.91): <2.91↓ pg/ml | IL-17F level (n=2, control <12.19): <12.19↓ pg/ml | IL-17E/IL-25 level (n=2, control <19.43): <19.43↓ pg/ml | IL-8 level (n=2, control >21942): >21942↑ pg/ml
